SMILES strings stand for the structures.

System in one series: not listed separately
Briefly: logP by HPLC on reversed-phase column (C 18), EEC Directive 79/831 Annex V.A8. Format: physicochemical. As to conditions: HPLC, 0.1% aqueous formic acid and acetonitrile, 40° C.; pH 2.3. The method, then:
Temperature: 40° C.; Mobile phases: 0.1% aqueous formic acid and acetonitrile; linear gradient from 10% acetonitrile to 90% acetonitrile.
In turn, `CCCN(C)C=Nc1cc(C)c(Oc2ccnc(Oc3cccc(Cl)c3C)n2)cc1C` [Compound 18] returned a logPa of 2.21.

`CCCN(C)C=Nc1cc(C)c(Oc2ccnc(Oc3ccccc3)n2)cc1C` [Compound 36] returned a logPa of 1.87.

`CCN(C)C=Nc1cc(C)c(Oc2ccnc(N(C)C)n2)cc1C` [Compound 37] displayed a logPa of 0.66.

In the case of `Cc1cc(Oc2cc(C)c(N=CN(C)C(C)C)cc2C)nc(Cl)n1` [Compound 41], the logPa is 1.57.

On to `CCN(C)C=Nc1cc(C)c(Oc2ccnc(Oc3cccc(Cl)c3)n2)cc1C` [Compound 65], for which the logPa is given as 2.04.

In turn, `CCN(C)C=Nc1cc(C)c(Oc2ccnc(Oc3cccc(C)c3)n2)cc1C` [Compound 79] came in with a logPa of 2.02.

The compound `Cc1cccc(Oc2nccc(Oc3cc(C)c(N=CN4CCCCC4)cc3C)n2)c1` [Compound 80] returned a logPa of 2.16.

For `CCN(C)C=Nc1cc(C)c(Oc2ccnc(Oc3ccc(Cl)cc3)n2)cc1C` [Compound 81], the logPa was found to be 2.11.

Take `Cc1cc(Oc2ccnc(Oc3ccc(Cl)cc3)n2)c(C)cc1N=CN1CCCCC1` [Compound 82]: the logPa amounted to 2.18.

`CCc1ncnc(Oc2cc(C)c(N=CN(C)CC)cc2C)c1Cl` [Compound 83] gave a logPa of 1.91.

`CCCN(C)C=Nc1cc(C)c(Oc2ncnc(CC)c2Cl)cc1C` [Compound 84] came in with a logPa of 1.99.

The compound `CCc1ncnc(Oc2cc(C)c(N=CN3CCCCC3)cc2C)c1Cl` [Compound 85] displayed a logPa of 1.98.

In the case of `CCc1ncnc(Oc2cc(C)c(N=CN3CCCC3)cc2C)c1Cl` [Compound 86], the logPa is given as 1.87.

As to `CCN(C)C=Nc1cc(C)c(Oc2ccnc(Oc3ccc(C(F)(F)F)cc3)n2)cc1C` [Compound 87], the logPa is recorded as 2.37.

Turning to `Cc1cc(Oc2ccnc(Oc3ccc(C(F)(F)F)cc3)n2)c(C)cc1N=CN1CCCCC1` [Compound 88], the logPa amounted to 2.49.

Regarding `CCN(C)C=Nc1cc(C)c(Oc2ncc(Cl)c(N(C)CC)n2)cc1C` [Compound 89, N′-[4-({5-chloro-4-[ethyl(methyl)amino]pyrimidin-2-yl}oxy)-2,5-dimethyl-phenyl]-N-ethyl-N-methylimidoformamide], the logPa was determined as 1.82.

Regarding `CCN(C)C=Nc1cc(C)c(Oc2ncc(C)c(C)n2)cc1C` [Compound 93], the logPa is on record as 1.19.

Consider `CCCN(C)C=Nc1cc(C)c(Oc2ncc(C)c(C)n2)cc1C` [Compound 94], for which the logPa was 1.4.

As to `CCN(C)C=Nc1cc(C)c(Oc2ncc(Cl)cn2)cc1C` [Compound 95], the logPa was determined as 1.32.

For the compound `CCCN(C)C=Nc1cc(C)c(Oc2ncc(Cl)cn2)cc1C` [Compound 96], the logPa came out at 1.48.

With `Cc1cc(Oc2ncc(Cl)cn2)c(C)cc1N=CN(C)C(C)C` [Compound 97], the logPa is listed as 1.41.

`CCCN(C)C=Nc1cc(C)c(Oc2nccc(C(F)(F)F)n2)cc1C` [Compound 98] registered a logPa of 1.7.

Consider `CCN(C)c1nc(Oc2cc(C)c(N=CN(C)C(C)C)cc2C)ncc1Cl` [Compound 99], for which the logPa is reported as 1.98.

For the compound `CCCN(C)C=Nc1cc(C)c(Oc2ncc(Cl)c(N(C)CC)n2)cc1C` [Compound 100], the logPa was determined as 1.95.

For `CCN(C)c1nc(Oc2cc(C)c(N=CN3CCCCC3)cc2C)ncc1Cl` [Compound 101], the logPa stood at 1.93.

Compound `CCN(C)C=Nc1cc(C)c(Oc2nccc(Oc3ccccc3)n2)cc1C` [Compound 102] had a logPa of 1.82.

In the case of `CCN(C)C=Nc1cc(C)c(Oc2nccc(Oc3cccc(Cl)c3)n2)cc1C` [Compound 103], the logPa is 2.13.

Still in this series, the particulars now being: measured at pH = 4 (footnote a).
Turning to `CCN(C)C=Nc1cc(C)c(Oc2nccc(C(F)(F)F)n2)cc1C` [Compound 90], the logPa was 0.22^a.

For `CCN(C)C=Nc1cc(C(C)C)c(Oc2nccc(C(F)(F)F)n2)cc1C` [Compound 92], the logPa was 1.10^a.

The series is the same for the next values; noted with them: reversed-phase C18 HPLC column; pH 2.3; value in preparation example text; read-out: log P (pH 2.3).
For `CCN(C)C=Nc1cc(C)c(Oc2ncc(Cl)c(N(C)CC)n2)cc1C` [Compound 89, N′-[4-({5-chloro-4-[ethyl(methyl)amino]pyrimidin-2-yl}oxy)-2,5-dimethyl-phenyl]-N-ethyl-N-methylimidoformamide], the chromatographic logP is 1.82.

Turning to `Cc1cc(Oc2ccnc(N(C)c3ccccc3)n2)c(C)cc1N` [[4-(4-Amino-2,5-dimethyl-phenoxy)-pyrimidin-2-yl]-methyl-phenyl-amine], the chromatographic logP was found to be 1.72.

Another series relates to Myzus persicae. In words: In vivo protective test on Myzus persicae (MYZUPE). To be noted: Chinese cabbage leaf-disks infected with green peach aphid, sprayed; concentration not given. The method, then: In vivo Protective Test on Myzus persicae (MYZUPE)
(§1) To produce a suitable preparation of active compound, 1 part by weight of active compound is mixed with the stated amount of solvent and emulsifier, and the concentrate is diluted with emulsifier-containing water to the desired concentration.
Chinese cabbage (Brassica pekinesis) leaf-disks infected with all instars of the green peach aphid (Myzus persicae), are sprayed with a preparation of the active ingredient at the desired concentration.
After the specified period of time, mortality in % is determined. 100% means that all aphids have been killed; 0% means that none of the aphids have been killed.
Regarding `CCCN(C)C=Nc1cc(C)c(Oc2ccnc(Oc3ccccc3)n2)cc1C` [Compound 36], the “activity (mortality)” value was “good activity”.

With `Cc1cc(Oc2cc(C)c(N=CN(C)C(C)C)cc2C)nc(Cl)n1` [Compound 41], the “activity (mortality)” value was “good activity”.

Take `CCN(C)C=Nc1cc(C)c(Oc2ccnc(Oc3cccc(Cl)c3)n2)cc1C` [Compound 65]: the “activity (mortality)” value is reported as “good activity”.

A further series deals with Tetranychus urticae. Briefly: In vivo protective test on Tetranychus urticae (TETRUR). As to conditions: French bean infested with two spotted spidermite, sprayed; concentration not given. As for the experimental part: In vivo Protective Test on Tetranychus urticae (TETRUR)
as §1
French bean (Phaseolus vulgaris) which are heavily infested with all stages of the two spotted spidermite (Tetranychus urticae), are sprayed with a preparation of the active ingredient at the desired concentration.
After the specified period of time, mortality in % is determined. 100% means that all spider mites have been killed and 0% means that none of the spider mites have been killed.
Turning to `CCN(C)C=Nc1cc(C)c(Oc2ccnc(N(C)C)n2)cc1C` [Compound 37], the “activity (mortality)” value is recorded as “good activity”.

Another series concerns Phaedon cochleariae. Briefly: In vivo protective test on Phaedon cochleariae (PHAECO). To be noted: Chinese cabbage leaf-disks sprayed, infested with mustard beetle larvae; concentration not given. The method, then:
In vivo Protective Test on Phaedon cochleariae (PHAECO)
as §1
Chinese cabbage (Brassica pekinesis) leaf-disks are sprayed with a preparation of the active ingredient of the desired concentration. Once dry, the leaf disks are infested with mustard beetle larvae (Phaedon cochleariae).
After the specified period of time, mortality in % is determined. 100% means that all beetle larvae have been killed and 0% means that none of the beetle larvae have been killed.
As to `CCCN(C)C=Nc1cc(C)c(Oc2ccnc(Oc3cccc(Cl)c3C)n2)cc1C` [Compound 18], the “activity (mortality)” value is recorded as “good activity”.
